Results taken from patent US8372848B2, “Melanin-concentrating hormone receptor antagonists and methods of use” (Mixture Sciences, Inc., priority 2004, dated 2013).
Entries after “also recorded” stand apart in the source; their conditions may differ.

Tests used:
[1] = system: rats; assay: Conditioned place aversion (CPA), Example VII; type: in vivo, rat; conditions: 10 nmole i.c.v. on conditioning days 2,3; test day 4; listed as TPI
Protocol: Rats were randomly divided into two (2) groups of eight (8) rats each (Groups I and II). Testing was performed in four identical place-conditioning chambers (43×43×30.5 cm) connected to a common interface and computer (MED Associates, Inc., St. Albans, Vt.). Test chambers had two equal compartments, each with unique sensory cues. One compartment had black and white striped walls, a stainless-steel wire mesh floor (0.16-cm wire with 1.27-cm openings), corncob bedding, and lemon-scented water applied to the walls immediately before each test. The other compartment had white walls with black dots, stainless-steel grid floor (0.48-cm rods placed 1.6 cm apart), wood-chip bedding, and banana-scented water applied to the walls. The two compartments were separated by a middle wall with a black guillotine door in the center. All rats were weighed and acclimated to the test room for 20 min each day before being placed into the apparatus.
The CPA test consisted of three phases. During the preconditioning phase (day 1), the animals were placed into the chamber for 15 min. During the conditioning phase (day 2,3), animals were injected i.c.v with either 0 (Group I—n=8) or 10 nmole (Group 2—n=8) of TPI and confined to one side for 20 min. […] The activity of the animals was monitored for 15 min.

[2] = biological target: T1, neuropeptide Y2 (Homo sapiens, UniProt P49146); assay: Selectivity versus neuropeptide Y2; type: cell-based
T1 sequence (P49146 1-381): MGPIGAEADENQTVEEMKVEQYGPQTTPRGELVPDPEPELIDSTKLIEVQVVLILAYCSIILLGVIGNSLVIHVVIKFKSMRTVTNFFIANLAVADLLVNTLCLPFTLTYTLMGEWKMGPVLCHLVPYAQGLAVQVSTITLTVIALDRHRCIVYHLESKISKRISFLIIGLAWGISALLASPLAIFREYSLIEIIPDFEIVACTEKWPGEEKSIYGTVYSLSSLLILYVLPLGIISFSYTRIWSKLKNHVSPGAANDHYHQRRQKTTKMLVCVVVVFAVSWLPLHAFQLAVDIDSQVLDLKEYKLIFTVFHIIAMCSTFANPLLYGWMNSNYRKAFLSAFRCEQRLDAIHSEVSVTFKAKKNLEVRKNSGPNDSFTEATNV

[3] = biological target: T2, MCH1R (Rattus norvegicus, UniProt P97639); assay: Library screening: inhibition of 30 nM MCH-induced Ca2+ mobilization in CHO cells expressing MCH1R; type: cell-based; conditions: five concentrations, ten-fold dilutions starting at 10 µM
T2 construct: expressed in transfected cells; host or cells: CHO
Protocol: A total of thirteen heterocyclic or peptidomimetics PS-SCLs containing 8,136,870 individual compounds were tested (Table 1). Most libraries were generated in a PS format by using 40˜50 amino acids at each of the R1 and R2 positions, and 40˜80 carboxylic acids at the R3 position. A sample set of PS-SCLs was screened initially, sub-libraries with defined R3 positions and a mixture of building blocks at each of the other two positions were prepared (all compounds in the library are represented). Each sub-library was composed of 40˜80 mixtures containing 1,500˜3,200 individual compounds. […]
Each mixture was assayed in duplicate in three separate assays at three concentrations (1, 0.1 and 0.01 µg/ml) (FIG. 1B). MCH1R inhibition was calculated as the percent decrease in intracellular Ca^2+ mobilization in MCH1R expressing CHO cells induced by 30 nM MCH in the presence or absence of the mixture. […]
Transfected […] cells seeded on black-walled 96-well plates (Sigma, St Louis USA) were loaded for 1 h at 37° C. with Ca^2+-sensitive fluorescent dye, fluo-4 (Molecular Device, CA) in Hanks' balanced salt solution containing 20 mM HEPES (pH 7.4). The level of [Ca^2+]i was then monitored using a FLIPR system (Fluorometric Imaging Plate Reader; Molecular Devices, San Francisco, Calif.). […] Data were expressed as fluorescence (arbitrary units) versus time.

[4] = biological target: human MCH2R (Homo sapiens, UniProt Q969V1); assay: Selectivity versus human MCH2R; type: cell-based
[5] = system: rats; assay: Spontaneous food and water intake after 1 hour deprivation, Example VIII; type: in vivo, rat; conditions: 10 nM i.c.v., start of dark cycle; for 30 minute food intake following 1 hour food/water deprivation, TPI treated versus control: b181 words it as control greater than treated, p less than 0.005
Protocol: In this example, adult male Sprague-Dawley rats, weighing 350-400 g were randomly divided into two (2) groups of eight (8) rats each (Groups I and II). The animals were housed individually in a room having an ambient temperature of 20 degrees C., a light cycle from 07:00 to 19:00 each day and a dark cycle from 19:00 to 07:00.
In a first experiment, food (rat chow) and water were made available ad libitum except during a 1 hour food/water deprivation period from 18:00 to 19:00. At the end of the 1 hour food/water deprivation period the animals in Group I (n=8) received 0.9% saline by i.c.v. injection and the animals in Group II (n−8) received 10 nM TPI 1361-17 (Formula IV) by i.c.v. injection. Immediately after dosing, and upon commencement of the darkness cycle, food (rat chow) and water were again made available ad libitum and food and water intake were measured for the next thirty (30) minutes. Data were compared using the non-parametric t-Test with the 0.05 level of probability and below being defined as significant.

Sequence of human MCH2R (Q969V1 whole entry): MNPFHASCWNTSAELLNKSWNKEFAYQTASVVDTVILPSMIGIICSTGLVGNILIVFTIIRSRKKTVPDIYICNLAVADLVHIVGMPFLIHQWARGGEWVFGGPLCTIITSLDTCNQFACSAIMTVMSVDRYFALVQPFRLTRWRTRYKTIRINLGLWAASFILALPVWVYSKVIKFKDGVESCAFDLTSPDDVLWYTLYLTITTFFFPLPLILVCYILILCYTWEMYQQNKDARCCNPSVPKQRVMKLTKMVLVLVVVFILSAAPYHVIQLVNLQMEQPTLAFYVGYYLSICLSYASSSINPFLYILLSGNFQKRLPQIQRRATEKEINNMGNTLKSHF
T2 sequence (P97639 whole entry): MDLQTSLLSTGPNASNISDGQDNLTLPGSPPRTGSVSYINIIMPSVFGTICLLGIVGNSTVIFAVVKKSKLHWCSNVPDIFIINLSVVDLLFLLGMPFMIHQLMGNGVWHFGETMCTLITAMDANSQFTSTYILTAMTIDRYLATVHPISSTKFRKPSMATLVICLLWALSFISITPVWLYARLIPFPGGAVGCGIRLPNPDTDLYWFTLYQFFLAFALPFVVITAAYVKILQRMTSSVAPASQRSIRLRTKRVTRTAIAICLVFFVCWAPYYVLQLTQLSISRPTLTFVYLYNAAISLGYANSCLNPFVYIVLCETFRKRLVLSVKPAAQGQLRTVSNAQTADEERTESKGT

C[C@@H](CNCc1ccccc1)N1C[C@H](CCCNC(=N)N)N(CCc2cccc(F)c2)C1=S [TPI 1361-17, N-(3-{(4S)-1-[(1S)-2-(benzylamino)-1-methylethyl]-3-[2-(3-fluorophenyl)ethyl]-2-thioxoimidazolidin-4-yl}propyl)guanidine]
Conditioned place aversion [1]: did not cause conditioned place aversion; also recorded: lack of conditioned place aversion
Selectivity for MCH1R compared with neuropeptide Y2 [2]: more than 1,000 fold
IC50 inhibiting 30 nM MCH-induced Ca2+ mobilization, 84 individual compounds [3]: highest affinity
Affinity to / antagonism of human MCH2R [4]: no affinity; also recorded: not appreciably antagonize
Selectivity for MCH1R compared with human MCH2R [4]: more than 1,000 fold
30 minute water intake following 1 hour food/water deprivation, TPI treated versus control [5]: not significantly different
30 minute food intake following 1 hour food/water deprivation, TPI treated versus control [5]: significantly greater
30 minute food intake following 1 hour food/water deprivation, TPI treated versus control ([5]; listed as TPI): significant decrease
30 minute water intake following 1 hour food/water deprivation, TPI treated versus control ([5]; listed as TPI): non-significant decrease
